In general, MIC refers to the smallest concentration in the dilution series that meets the test's criterion for growth inhibition. As usually defined, the MIC90 is the lowest concentration that inhibits either 90% of growth or 90% of the strains tested, depending on the study.

The source of these data is ChEMBL document CHEMBL3352501, “SAR analysis of new anti-TB drugs currently in pre-clinical and clinical development” (Eur J Med Chem, 2014).

Assay [1] has as its system Mycobacterium tuberculosis. In words: Antitubercular activity against drug-resistant Mycobacterium tuberculosis clinical isolates assessed as growth inhibition. The assay is classed as functional.
Assay [2] concerns Mycobacterium tuberculosis. In words: Antitubercular activity against multidrug-resistant Mycobacterium tuberculosis clinical isolates assessed as growth inhibition. The assay is classed as functional.

Each structure is given as a SMILES string. Values after ≈ are worked out from the molar mass of the structure shown. Where only a bound is given, the exact number is not on record here.

Consider `CC(C)=CCC/C(C)=C/CNCCNC1C2CC3CC(C2)CC1C3` (stereo not given) [SQ109], for which, in assay [1], the MIC worked out at 0.2 µg/mL (≈ 0.605 µM).

`COc1nc2ccc(Br)cc2cc1[C@@H](c1ccccc1)[C@@](O)(CCN(C)C)c1cccc2ccccc12` [BEDAQUILINE]: the minimum inhibitory concentration (MIC) in assay [1] worked out at 0.002 µg/mL (≈ 0.0036 µM).

For `CC(C)/N=c1\cc2n(-c3ccc(Cl)cc3)c3ccccc3nc-2cc1Nc1ccc(Cl)cc1` [CLOFAZIMINE], the minimum inhibitory concentration (MIC) in assay [1] was determined as 0.108 µg/mL (≈ 0.228 µM).

Turning to `CCc1nc2ccc(Cl)cn2c1C(=O)NCc1ccc(N2CCC(c3ccc(OC(F)(F)F)cc3)CC2)cc1` [TELACEBEC], the MIC90 in assay [2] was under 0.43 nM.

On to `COc1ncccc1Nc1cc2nc3ccccc3n(-c3ccc(OC(F)(F)F)cc3)c-2c/c1=N\C1CCC(OC)CC1` (stereo not given), for which the MIC in assay [1] is 0.027 µg/mL (≈ 0.0458 µM).
